# Measurements reported in US12527779B2, “Prostaglandin E2 (PGE2) EP4 receptor antagonists” (Domain Therapeutics, priority 2019, dated 2026).
# Values joined by “and” are separate entries in the source; they are usually repeats but may differ in a detail not shown here. Identical values can stand only once.
# Test system: MCA205 tumor cells
# Assay: In vivo anti-tumoral activity of Example 166 in a MCA205 tumor model
# Set-up: species or system C57BL/6 mice
# Protocol: Sarcoma MCA205 tumor cell line was cultured in vitro in DMEM supplemented with 10% FBS, 1% Penicillin-Streptomycin, 1 mM HEPES. Before inoculation in mice, cell viability was assessed by flow cytometry analysis and viable cell gating. A cell suspension was prepared according to the viable cell count.
# Female C57BL/6 mice were inoculated subcutaneously in the right flank region with MCA205 tumor cells (0.5×10^6) in 0.1 ml of PBS for tumor development on day 1. Tumor volumes were measured thrice per week in two dimensions using a caliper, and the volume was expressed in mm^3 using the formula: “V=(L×W×W)/2”, where V is tumor volume, L is tumor length (the longest tumor dimension) and W is tumor width (the longest tumor dimension perpendicular to L). When the mean tumor size reached approximately 80 mm^3, mice were randomly allocated into groups (10 mice per group) and treated with or without an anti-PD-1 antibody (RPM1-14, 5 mg/kg, ip, on days 1, 4, 7, 10), with or without the compound of Example 166 (30 or 100 mg/kg, po, QD, 5% DMSO/95% (10% w/v solution of HP-3-CD in water) v/v) for 23 days).
# Animals were checked daily for morbidity and mortality. During routine monitoring, the animals were checked for any effects on tumor growth and treatments on behavior such as mobility, food and water consumption, body weight gain/loss (body weights were measured thrice per week), eye/hair matting and any other abnormalities.
smiles,measurement,setting,value
"C[C@H](NC(=O)C1(N2CC[C@@H](Oc3cccc(C(F)(F)F)c3)C2)CC1)c1ccc(C(=O)O)cc1.Cl [Example 166, 4-[(1S)-1-[[1-[(3R)-3-[3-(Trifluoromethyl)phenoxy]pyrrolidin-1-yl]cyclopropane-1-carbonyl]amino]ethyl]benzoic acid, hydrochloride]",Tumor Growth Inhibition TGI (%),"Example 166 30 mg/kg po QD + anti-PD1 antibody 5 mg/kg ip, day 1",0.1%
same,Tumor Growth Inhibition TGI (%),"Example 166 30 mg/kg po QD + anti-PD1 antibody 5 mg/kg ip, day 3",8.3%
same,Tumor Growth Inhibition TGI (%),"Example 166 30 mg/kg po QD + anti-PD1 antibody 5 mg/kg ip, day 6",30.6%
same,Tumor Growth Inhibition TGI (%),"Example 166 30 mg/kg po QD + anti-PD1 antibody 5 mg/kg ip, day 8",47.4%
same,Tumor Growth Inhibition TGI (%),"Example 166 30 mg/kg po QD + anti-PD1 antibody 5 mg/kg ip, day 10",58.6%
same,Tumor Growth Inhibition TGI (%),"Example 166 30 mg/kg po QD + anti-PD1 antibody 5 mg/kg ip, day 13",55.7%
same,Tumor Growth Inhibition TGI (%),"Example 166 30 mg/kg po QD + anti-PD1 antibody 5 mg/kg ip, day 15",49.3%
same,Tumor Growth Inhibition TGI (%),"Example 166 30 mg/kg po QD + anti-PD1 antibody 5 mg/kg ip, day 17",52.2%
same,Tumor Growth Inhibition TGI (%),"Example 166 30 mg/kg po QD, day 1",−6.1%
same,Tumor Growth Inhibition TGI (%),"Example 166 30 mg/kg po QD, day 3",−6.3%
same,Tumor Growth Inhibition TGI (%),"Example 166 30 mg/kg po QD, day 6",−22.4%
same,Tumor Growth Inhibition TGI (%),"Example 166 30 mg/kg po QD, day 8",9.8%
same,Tumor Growth Inhibition TGI (%),"Example 166 30 mg/kg po QD, day 10",10.2%
same,Tumor Growth Inhibition TGI (%),"Example 166 30 mg/kg po QD, day 13",6.4%
same,Tumor Growth Inhibition TGI (%),"Example 166 30 mg/kg po QD, day 15",4.3%
same,Tumor Growth Inhibition TGI (%),"Example 166 30 mg/kg po QD, day 17",10.8%
same,Tumor Growth Inhibition TGI (%),"Example 166 100 mg/kg po QD + anti-PD1 antibody 5 mg/kg ip, day 1",1.4%
same,Tumor Growth Inhibition TGI (%),"Example 166 100 mg/kg po QD + anti-PD1 antibody 5 mg/kg ip, day 3",12.2%
same,Tumor Growth Inhibition TGI (%),"Example 166 100 mg/kg po QD + anti-PD1 antibody 5 mg/kg ip, day 6",34.3%
same,Tumor Growth Inhibition TGI (%),"Example 166 100 mg/kg po QD + anti-PD1 antibody 5 mg/kg ip, day 8",50.2%
same,Tumor Growth Inhibition TGI (%),"Example 166 100 mg/kg po QD + anti-PD1 antibody 5 mg/kg ip, day 10",66.6%
same,Tumor Growth Inhibition TGI (%),"Example 166 100 mg/kg po QD + anti-PD1 antibody 5 mg/kg ip, day 13",70.4%
same,Tumor Growth Inhibition TGI (%),"Example 166 100 mg/kg po QD + anti-PD1 antibody 5 mg/kg ip, day 15",67.3%
same,Tumor Growth Inhibition TGI (%),"Example 166 100 mg/kg po QD + anti-PD1 antibody 5 mg/kg ip, day 17, hydrochloride",68.0% and 68.1%
same,Tumor Growth Inhibition TGI (%),"Example 166 100 mg/kg po QD, day 1",−0.7%
same,Tumor Growth Inhibition TGI (%),"Example 166 100 mg/kg po QD, day 3",13.2%
same,Tumor Growth Inhibition TGI (%),"Example 166 100 mg/kg po QD, day 6",12.1%
same,Tumor Growth Inhibition TGI (%),"Example 166 100 mg/kg po QD, day 8",16.7%
same,Tumor Growth Inhibition TGI (%),"Example 166 100 mg/kg po QD, day 10",25.7%
same,Tumor Growth Inhibition TGI (%),"Example 166 100 mg/kg po QD, day 13",32.6%
same,Tumor Growth Inhibition TGI (%),"Example 166 100 mg/kg po QD, day 15",23.6%
same,Tumor Growth Inhibition TGI (%),"Example 166 100 mg/kg po QD, day 17, hydrochloride, 100 mg/kg",31.0%
